This is an account of results in ChEMBL document CHEMBL1782028, “Evaluation of structurally diverse neuronal nicotinic receptor ligands for selectivity at the alpha6( *) subtype” (Bioorg Med Chem Lett, 2009).

Each structure is given as a SMILES string. pEC50, pKi: −log10 of the molar value.

The target in assay [1] is Neuronal acetylcholine receptor subunit alpha-4/alpha-6/beta-2/beta-3 (Mus musculus) (UniProt Q9ERK7+O70174+Q9R0W9+Q8BMN3). Description: Activity at alpha6alpha4beta3beta2 nAChR in mouse striatal synaptosomes assessed as alpha-conotoxic […] DA release relative to control. The settings on record: Brain. Type of assay: subcellular.
The target of assay [2] is T1, Neuronal acetylcholine receptor subunit alpha-6/beta-2 (Mus musculus, UniProt Q9ERK7+Q9R0W9). Put plainly: Displacement of [125I]-alpha-Conotoxin MII from alpha6beta2* nAChR in mouse olfactory tubercles, striatum and superior coliculus. Type of assay: tissue-based, Olfactory tubercle.
Assay [3] concerns the target T2, Neuronal acetylcholine receptor subunit alpha-3/beta-4 (Mus musculus, UniProt Q8R493+Q8R4G9). Description: Activity at alpha3beta4* nAChR in mouse interpeduncular nucleus assessed as [3H]ACh release by scintillation counting relative to control. The format is tissue-based.
In assay [4] the target is Neuronal acetylcholine receptor subunit alpha-4/alpha-6/beta-2/beta-3 (Mus musculus, UniProt O70174+Q8BMN3+Q9ERK7+Q9R0W9). Description: (§1) Activity at alpha6alpha4beta3beta2 nAChR in mouse striatal synaptosomes assessed as alpha-conotoxic […] DA release. Type of assay: subcellular, Brain.
Assay [5] has as its target T3, Nicotinic acetylcholine receptor alpha-4/beta-2 (Mus musculus, UniProt Q8R493+Q9ERK7). Description: Displacement of [125I]epibatidine from alpha4beta2* nAChR in C57BL/6J mouse cortical membrane by gamma counting. The format is cell membranes.
Assay [6] has as its target T2, Neuronal acetylcholine receptor subunit alpha-3/beta-4. Description: Activity at alpha3beta4* nAChR in mouse interpeduncular nucleus assessed as [3H]ACh release by scintillation counting. The format is tissue-based.
Assay [7] addresses T3, Nicotinic acetylcholine receptor alpha-4/beta-2. Put plainly: Activity at alpha4beta2*nAChR in mouse striatal synaptosomes assessed as alpha-conotoxic MII-resistant DA release. The format is subcellular, Brain.
Assay [8] deals with Neuronal acetylcholine receptor subunit alpha-7 (Mus musculus, UniProt P49582). Put plainly: Displacement of [125I]alpha-bungarotoxin from alpha7 nAChR in C57BL/6J mouse hippocampal membrane. Type of assay: tissue-based, Hippocampus.
Assay [9] addresses Nicotinic acetylcholine receptor alpha-4/beta-2 (Mus musculus) (UniProt Q9ERK7+Q8R493). Put plainly: Activity at alpha4beta2*nAChR in mouse striatal synaptosomes assessed as alpha-conotoxic MII-resistant DA release relative to control. The format is subcellular. The settings on record: Brain.
Assay [10] is described as follows: Selectivity ratio, ratio of EC50 for alpha3beta4* nAChR in mouse to EC50 for alpha6beta2*nAChR in mouse.
A short description of assay [11]: Selectivity ratio, ratio of EC50 for alpha3beta4* nAChR in mouse to EC50 for alpha4beta2*nAChR in mouse.
Assay [12] is described as follows: Selectivity ratio, ratio of EC50 for alpha3beta4* nAChR in mouse to Ki for alpha6beta2*nAChR in mouse.
The target of assay [13] is T1, Neuronal acetylcholine receptor subunit alpha-6/beta-2. Description: Inhibition of mouse alpha6alpha4beta3beta2 nAChR. The format is protein-complex assay.
Assay [14] in a line: Selectivity ratio, ratio of EC50 for alpha3beta4* nAChR in mouse to Ki for alpha4beta2*nAChR in mouse.
The target in assay [15] is Neuronal acetylcholine receptor subunit alpha-4/alpha-6/beta-2/beta-3 (Mus musculus, UniProt Q9ERK7+O70174+Q9R0W9+Q8BMN3). Described as §1. Type of assay: subcellular, Brain.
Chain of Neuronal acetylcholine receptor subunit alpha-4/alpha-6/beta-2/beta-3 (Mus musculus, UniProt Q9ERK7+O70174+Q9R0W9+Q8BMN3) (Q9ERK7 whole entry): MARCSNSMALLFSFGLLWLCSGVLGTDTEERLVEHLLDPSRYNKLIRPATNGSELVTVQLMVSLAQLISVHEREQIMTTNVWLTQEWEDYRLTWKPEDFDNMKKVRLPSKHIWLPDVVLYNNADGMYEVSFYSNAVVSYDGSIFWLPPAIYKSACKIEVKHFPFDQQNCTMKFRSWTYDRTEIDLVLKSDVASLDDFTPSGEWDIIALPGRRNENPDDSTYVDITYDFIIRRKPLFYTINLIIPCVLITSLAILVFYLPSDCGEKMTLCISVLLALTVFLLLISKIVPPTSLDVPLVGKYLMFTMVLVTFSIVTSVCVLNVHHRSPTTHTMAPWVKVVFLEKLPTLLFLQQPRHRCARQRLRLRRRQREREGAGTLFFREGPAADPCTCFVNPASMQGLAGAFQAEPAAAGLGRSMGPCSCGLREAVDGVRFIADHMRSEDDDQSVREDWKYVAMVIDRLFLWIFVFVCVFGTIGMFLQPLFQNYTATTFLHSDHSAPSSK
Chain of Neuronal acetylcholine receptor subunit alpha-4/alpha-6/beta-2/beta-3 (Mus musculus, UniProt Q9ERK7+O70174+Q9R0W9+Q8BMN3) (O70174 whole entry): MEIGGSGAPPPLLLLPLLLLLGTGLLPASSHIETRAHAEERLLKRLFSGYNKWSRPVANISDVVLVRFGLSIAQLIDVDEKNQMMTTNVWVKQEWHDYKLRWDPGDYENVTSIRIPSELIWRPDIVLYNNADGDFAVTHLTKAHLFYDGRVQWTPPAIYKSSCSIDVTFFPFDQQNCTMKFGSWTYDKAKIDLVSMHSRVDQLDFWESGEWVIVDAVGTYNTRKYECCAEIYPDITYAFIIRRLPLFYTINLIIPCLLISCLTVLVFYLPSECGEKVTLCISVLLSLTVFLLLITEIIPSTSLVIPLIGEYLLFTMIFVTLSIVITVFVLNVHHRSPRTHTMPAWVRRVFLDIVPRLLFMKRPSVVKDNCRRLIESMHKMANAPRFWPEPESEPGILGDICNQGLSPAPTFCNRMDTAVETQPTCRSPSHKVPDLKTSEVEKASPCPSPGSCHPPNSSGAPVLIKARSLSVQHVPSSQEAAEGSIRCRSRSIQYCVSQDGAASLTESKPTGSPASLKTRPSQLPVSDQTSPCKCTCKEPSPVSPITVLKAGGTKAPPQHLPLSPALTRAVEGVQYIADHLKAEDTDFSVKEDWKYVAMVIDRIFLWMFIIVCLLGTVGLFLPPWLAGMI
Chain of Neuronal acetylcholine receptor subunit alpha-4/alpha-6/beta-2/beta-3 (Mus musculus, UniProt Q9ERK7+O70174+Q9R0W9+Q8BMN3) (Q9R0W9 whole entry): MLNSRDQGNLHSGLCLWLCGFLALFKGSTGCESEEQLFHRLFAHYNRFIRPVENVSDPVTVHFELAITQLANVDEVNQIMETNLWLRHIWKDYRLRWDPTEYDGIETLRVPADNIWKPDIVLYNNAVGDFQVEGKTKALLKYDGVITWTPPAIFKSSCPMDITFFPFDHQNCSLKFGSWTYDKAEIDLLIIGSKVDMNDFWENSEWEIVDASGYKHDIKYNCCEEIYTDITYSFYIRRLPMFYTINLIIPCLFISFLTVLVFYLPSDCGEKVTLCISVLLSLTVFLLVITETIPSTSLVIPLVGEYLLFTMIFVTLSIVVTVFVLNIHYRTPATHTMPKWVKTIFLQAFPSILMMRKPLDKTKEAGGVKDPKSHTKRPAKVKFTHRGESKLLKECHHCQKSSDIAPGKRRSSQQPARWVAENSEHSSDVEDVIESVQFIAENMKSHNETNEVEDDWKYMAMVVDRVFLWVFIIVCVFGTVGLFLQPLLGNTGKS
Chain of Neuronal acetylcholine receptor subunit alpha-4/alpha-6/beta-2/beta-3 (Mus musculus, UniProt Q9ERK7+O70174+Q9R0W9+Q8BMN3) (Q8BMN3 whole entry): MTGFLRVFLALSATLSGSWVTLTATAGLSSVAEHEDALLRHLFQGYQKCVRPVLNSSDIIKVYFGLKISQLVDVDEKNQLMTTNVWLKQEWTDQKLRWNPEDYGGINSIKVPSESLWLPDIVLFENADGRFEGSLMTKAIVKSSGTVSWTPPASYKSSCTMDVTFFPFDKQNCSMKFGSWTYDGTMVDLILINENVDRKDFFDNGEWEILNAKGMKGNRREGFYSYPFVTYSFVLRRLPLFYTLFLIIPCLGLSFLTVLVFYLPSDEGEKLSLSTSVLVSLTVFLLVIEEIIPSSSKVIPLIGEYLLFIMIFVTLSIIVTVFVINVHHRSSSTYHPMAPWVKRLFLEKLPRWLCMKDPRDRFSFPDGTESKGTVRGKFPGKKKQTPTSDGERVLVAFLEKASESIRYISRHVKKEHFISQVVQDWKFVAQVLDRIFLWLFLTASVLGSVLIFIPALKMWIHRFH

T2 sequence (Q8R493 whole entry): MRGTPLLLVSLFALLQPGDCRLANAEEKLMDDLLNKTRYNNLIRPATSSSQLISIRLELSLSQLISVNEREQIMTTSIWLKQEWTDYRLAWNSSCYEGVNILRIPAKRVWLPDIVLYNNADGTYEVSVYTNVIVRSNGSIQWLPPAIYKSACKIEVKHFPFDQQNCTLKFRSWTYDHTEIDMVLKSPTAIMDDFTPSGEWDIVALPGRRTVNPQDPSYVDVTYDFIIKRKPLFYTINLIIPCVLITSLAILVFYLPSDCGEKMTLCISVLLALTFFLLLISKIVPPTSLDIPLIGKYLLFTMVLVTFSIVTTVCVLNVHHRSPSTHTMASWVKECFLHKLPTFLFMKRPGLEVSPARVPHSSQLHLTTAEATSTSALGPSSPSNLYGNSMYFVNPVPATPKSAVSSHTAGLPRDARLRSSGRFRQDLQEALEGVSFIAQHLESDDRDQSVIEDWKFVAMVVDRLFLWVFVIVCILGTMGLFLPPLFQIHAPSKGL
T2 sequence (Q8R4G9 whole entry): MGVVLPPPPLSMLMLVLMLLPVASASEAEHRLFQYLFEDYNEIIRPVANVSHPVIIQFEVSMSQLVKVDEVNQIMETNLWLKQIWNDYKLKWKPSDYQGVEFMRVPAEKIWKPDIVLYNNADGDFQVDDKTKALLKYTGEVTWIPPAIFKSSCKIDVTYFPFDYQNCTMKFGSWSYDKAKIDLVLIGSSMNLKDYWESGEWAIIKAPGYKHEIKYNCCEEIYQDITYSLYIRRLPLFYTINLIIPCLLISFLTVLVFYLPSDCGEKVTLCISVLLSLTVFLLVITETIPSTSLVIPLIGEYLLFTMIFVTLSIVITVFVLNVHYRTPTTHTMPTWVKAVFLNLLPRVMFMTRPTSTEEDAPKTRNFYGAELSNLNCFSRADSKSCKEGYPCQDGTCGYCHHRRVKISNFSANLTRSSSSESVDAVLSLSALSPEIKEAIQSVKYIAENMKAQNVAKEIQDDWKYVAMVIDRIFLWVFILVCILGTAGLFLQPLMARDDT
T1 sequence (Q9ERK7 whole entry): as the sequence (Q9ERK7 whole entry) above
T1 sequence (Q9R0W9 whole entry): as the sequence (Q9R0W9 whole entry) above
Chain of Neuronal acetylcholine receptor subunit alpha-4/alpha-6/beta-2/beta-3 (Mus musculus, UniProt O70174+Q8BMN3+Q9ERK7+Q9R0W9) (Q9ERK7 whole entry): as the sequence (Q9ERK7 whole entry) above
Chain of Neuronal acetylcholine receptor subunit alpha-4/alpha-6/beta-2/beta-3 (Mus musculus, UniProt O70174+Q8BMN3+Q9ERK7+Q9R0W9) (O70174 whole entry): as the sequence (O70174 whole entry) above
Chain of Neuronal acetylcholine receptor subunit alpha-4/alpha-6/beta-2/beta-3 (Mus musculus, UniProt O70174+Q8BMN3+Q9ERK7+Q9R0W9) (Q9R0W9 whole entry): as the sequence (Q9R0W9 whole entry) above
Chain of Neuronal acetylcholine receptor subunit alpha-4/alpha-6/beta-2/beta-3 (Mus musculus, UniProt O70174+Q8BMN3+Q9ERK7+Q9R0W9) (Q8BMN3 whole entry): as the sequence (Q8BMN3 whole entry) above
T3 sequence (Q9ERK7 whole entry): as the sequence (Q9ERK7 whole entry) above
T3 sequence (Q8R493 whole entry): as the sequence (Q8R493 whole entry) above
Chain of Neuronal acetylcholine receptor subunit alpha-7 (P49582 whole entry): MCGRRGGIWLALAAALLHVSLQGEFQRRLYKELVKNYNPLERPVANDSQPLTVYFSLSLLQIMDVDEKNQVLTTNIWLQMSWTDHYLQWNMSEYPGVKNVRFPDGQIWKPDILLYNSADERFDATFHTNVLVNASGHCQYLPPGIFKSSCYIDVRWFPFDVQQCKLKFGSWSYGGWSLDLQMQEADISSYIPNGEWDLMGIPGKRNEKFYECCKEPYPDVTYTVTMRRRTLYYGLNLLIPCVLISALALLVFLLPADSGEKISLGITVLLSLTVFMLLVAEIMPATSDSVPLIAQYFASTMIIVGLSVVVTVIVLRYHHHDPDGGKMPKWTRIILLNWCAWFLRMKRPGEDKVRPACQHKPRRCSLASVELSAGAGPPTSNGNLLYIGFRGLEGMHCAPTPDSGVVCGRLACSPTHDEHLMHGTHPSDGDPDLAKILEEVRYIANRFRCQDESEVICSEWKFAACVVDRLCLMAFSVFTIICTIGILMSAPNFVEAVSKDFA

In the case of `c1cncc(CC2CC3CCN2CC3)c1` (stereo not given), the Imax in assay [1] amounted to 96%.
`C(#C[C@H]1CCCN1)c1cncnc1`: the pKi in assay [2] was 6.47; in assay [5], 7.52; in assay [8], 5.24. Further, the negative logarithm of the EC50 (pEC50) is 4.47 in [3], 5.92 in assay [4] and 5.49 in assay [7]. Moreover, the Emax in assay [1] came out at 134%; in [6] it was 74%; in assay [9], 64%.
On to `C(#C[C@H]1CCCN1)c1cncnc1.O=C(O)[C@@H](O)[C@H](O)[C@H](O)[C@@H](O)C(=O)O`, for which the “Ratio EC50” value was determined as 28 in [10] and 10.6 in assay [11].
For `CNCC/C=C/c1cncnc1.O=C(O)[C@@H](O)[C@H](O)[C@H](O)[C@@H](O)C(=O)O`, the pKi in assay [2] is 5.97; in assay [5], 7.16; in [8], less than 5.00. Also, the negative-log EC50 (pEC50) in assay [3] was 5.02; in assay [4], 4.43; in assay [7], 5.23. For the same compound, the Emax worked out at 80% in assay [1], 4% in [6] and 73% in [9]. Besides, the “Ratio EC50” value in assay [10] was 0.26; in assay [11], 1.6.
Take `C(=C\[C@@H]1CCNC1)/c1cccnc1.O=C(O)C(F)(F)F`: the figures for the pKi in [2], in assay [5] and in assay [8] were 6.74, 7.96 and 5.50, respectively. Besides, the pEC50 in [3] is 4.80; in assay [4], 6.10; in assay [7], 5.36. The Emax in assay [1] stood at 66%; in assay [6], 58%; in assay [9], 109%. Also, the “Ratio EC50” value in assay [10] is given as 20; in assay [11], 3.6.
Consider `C(=C\[C@@H]1CCNC1)/c1cncnc1.O=C(O)[C@@H](O)[C@H](O)[C@H](O)[C@@H](O)C(=O)O`, for which the results for the pKi in assay [2], in [5] and in assay [8] were 6.49, 7.62 and less than 5.00, respectively. Moreover, the pEC50 in [3] was 3.79; in [4], 6.28; in assay [7] it was 4.72. Also, the Emax turned out to be 48% in [1], 97% in assay [6] and 133% in [9]. The “Ratio EC50” value in assay [10] stood at 304; in assay [11], 8.5.
Turning to `O=C(O)C(F)(F)F.c1ncc(CC2CC3CCN2CC3)cn1` (stereo not given), the pKi in assay [2] was 6.94; in [5], 7.23; in assay [13] it was 5.60; in assay [8], 5.59. Also, the pEC50 in assay [3] was 4.55. In addition, the Imax in [1] came to 91%; in assay [9], 92%. For the same compound, the figures for the Ratio in [12] and in assay [14] were 11.2 and 87.5, respectively. Moreover, the Emax in [6] came to 106%.
As for `CN1C2C=C(c3cccnc3)CC1CC2.Cl.Cl` (stereo not given), the pKi in [2] was 7.26; in assay [5], 8.01; in assay [8], 5.68. The results for the pEC50 in assay [3], in [4] and in assay [7] were 4.68, 6.70 and 5.47, respectively. Moreover, the values for the Emax in assay [1], in [6] and in assay [9] were 50%, 71% and 75%, respectively. Also, the results for the “Ratio EC50” value in assay [10] and in [11] were 105 and 6.2, respectively.
`C(#C[C@H]1CCCN1)c1cccnc1.O=C(O)[C@@H](O)[C@H](O)[C@H](O)[C@@H](O)C(=O)O`: the pKi in assay [2] was 6.62; in assay [5], 7.70; in assay [8], 6.13. For the same compound, the pEC50 is 5.25 in assay [3], 6.15 in assay [4] and 4.89 in assay [7]. Besides, the results for the Emax in [1], in assay [6] and in assay [9] were 42%, 81% and 120%, respectively. Besides, the “Ratio EC50” value came out at 8 in assay [10] and 0.4 in assay [11].
Take `CN1C2C=C(c3cncnc3)CC1CC2.O=C(O)C(F)(F)F` (stereo not given): the pKi in assay [2] is 7.77; in [5] it was 8.92; in assay [8] it was 5.04. Also, the pEC50 in assay [3] is 4.39; in [4] it was 7.00; in assay [7] it was 5.74. Moreover, the Emax in assay [1] was determined as 77%; in assay [6], 35%; in assay [9], 45%. In addition, the “Ratio EC50” value in [10] is recorded as 410; in assay [11], 22.7.
In the case of `c1cncc(C2CC3CCN2CC3)c1` (stereo not given), the Emax in assay [9] came to 29%.
For the compound `CNCC/C=C/c1cccnc1.O=C(O)[C@@H](O)[C@H](O)[C@H](O)[C@@H](O)C(=O)O`, the pKi in assay [2] is 5.81; in assay [5], 7.60; in assay [8], less than 5.00. Moreover, the pEC50 in assay [3] is 3.66; in assay [7], 5.08. Besides, the values for the Emax in assay [1], in assay [6] and in assay [9] were 0%, 45% and 122%, respectively. For the same compound, the EC50 result in assay [15] is “Not Active”. Besides, the “Ratio EC50” value in assay [11] is given as 26.
For `O=C(O)C(F)(F)F.c1ncc(C2CC3CCN2CC3)cn1` (stereo not given), the pKi is 8.10 in assay [2], 8.74 in [5] and 5.96 in [8]. The pEC50 is 5.62 in assay [3], 7.05 in [4] and 6.35 in assay [7]. Moreover, the Emax worked out at 104% in assay [1], 95% in assay [6] and 43% in assay [9]. Further, the “Ratio EC50” value in assay [10] is recorded as 26.7; in assay [11] it was 5.3.
